From patent US20170334941A1, “2',2'-DIHALO NUCLEOSIDE ANALOGS FOR TREATMENT OF THE FLAVIVIRIDAE FAMILY OF VIRUSES AND CANCER” (COCRYSTAL PHARMA, INC., priority 2014, published 2017)
Like-named read-outs stand apart in the source and are kept apart here.

Key:
human PBM cells = test: Cellular toxicity assay in human PBM cells; type: cell-based; conditions: Human PBM cells
Experimental: (§1) The toxicity of the compounds was assessed in Vero, human PBM, CEM (human lymphoblastoid), MT-2, and HepG2 cells, as described previously (see Schinazi R. F., Sommadossi J.-P., Saalmann V., Cannon D. L., Xie M.-Y., Hart G. C., Smith G. A. & Hahn E. F. Antimicrob. Agents Chemother. 1990, 34, 1061-67). Cycloheximide was included as positive cytotoxic control, and untreated cells exposed to solvent were included as negative controls. The cytotoxicity IC50 was obtained from the concentration-response curve using the median effective method described previously (see Chou T.-C. & Talalay P. Adv. Enzyme Regul. 1984, 22, 27-55; Belen'kii M. S. & Schinazi R. F. Antiviral Res. 1994, 25, 1-11).

Vero cells = test: Cellular toxicity assay in Vero cells; type: cell-based
Experimental: as §1

[1] = system: CEM (human lymphoblastoid) cells; test: Cellular toxicity assay in CEM cells; type: cell-based
Experimental: as §1

[2] = Cellular toxicity assay in human PBM cells; type: cell-based; conditions: read-out: Cytotoxicity, CC50
Experimental: as §1

[3] = Cellular toxicity assay in Vero cells; type: cell-based; conditions: African green monkey, read-out: Cytotoxicity, CC50
Experimental: as §1

[4] = Cellular toxicity assay in CEM cells; type: cell-based, human; conditions: human, read-out: Cytotoxicity, CC50
Experimental: as §1

[5] = system: HCV GT 1b replicon (Huh-7 cells); test: HCV replicon assay; type: cell-based; conditions: Hepatitis C virus, GT1B
Experimental: (§2) The HCV replicon assay was carried out as described in Stuyver L et al., Ribonucleoside analogue that blocks replication or bovine viral diarrhea and hepatitis C viruses in culture. Antimicrob. Agents Chemother. 2003, 47, 244-254. Huh 7 Clone B cells containing HCV Replicon RNA were seeded in a 96-well plate at 5000 cells/well, and the compounds tested at 10 μM in triplicate immediately after seeding. Following five days incubation (37° C., 5% CO2), total cellular RNA was isolated by using versaGene RNA purification kit from Gentra. Replicon RNA and an internal control (TaqMan rRNA control reagents, Applied Biosystems) were amplified in a single step multiplex Real Time RT-PCR Assay. The antiviral effectiveness of the compounds was calculated by subtracting the threshold RT-PCR cycle of the test compound from the threshold RT-PCR cycle of the no-drug control (ΔCt HCV). A ACt of 3.3 equals a 1-log reduction (equal to 90% less starting material) in Replicon RNA levels. The cytotoxicity of the compounds was also calculated by using the ΔCt rRNA values. 2′-C-Me-C was used as the positive control. To determine EC90 and IC50 values (using methods described in Reed I J & Muench H, A simple method or estimating fifty percent endpoints. Am. J. Hyg. 27: 497, 1938), ΔCt: values were first converted into fraction of starting material (Applied Biosystems Handbook) and then were used to calculate the % inhibition.

[6] = Cytotoxicity in HCV replicon assay (ΔCt rRNA); type: cell-based; conditions: human, Huh-7 Clone B cells containing HCV GT 1b replicon RNA, Huh-7 cells
Experimental: as §2, with “To determine EC90 and IC50 values (using methods described in Reed I J & Muench H, A simple method or estimating fifty percent endpoints. Am. J. Hyg. 27: 497, 1938), ΔCt: values were first converted into fraction of starting material (Applied Biosystems Handbook) and then were used to calculate the % inhibition.” left out

SMILES	% inhibition at maximum concentration evaluated (human PBM cells)	CC50 (human PBM cells; read-out: Cytotoxicity, CC50)	% inhibition at maximum concentration evaluated (Vero cells)	CC50 (Vero cells; read-out: Cytotoxicity, CC50)	% inhibition at maximum concentration evaluated [1]	CC50 ([1]; read-out: Cytotoxicity, CC50)	CC50 ([2]; Human PBM cells)	CC50 [3]	CC50 [4]	CC50 ([2]; human, human PBM cells)	CC50 ([4]; CEM lymphoblastoid cells)	EC50 ([5]; HCV GT 1b replicon, Huh-7 cells, read-out: EC50)	EC90 ([5]; HCV GT 1b replicon, Huh-7 cells, read-out: EC90)	CC50 at 5 days [6]	EC50 ([5]; Huh-7)	EC90 ([5]; Huh-7)
O=c1ccn(C2OC(CO)C(O)C2(Cl)Cl)c(=O)[nH]1 (centres unmarked) [Compound 17]	−11%	> 100 µM	1.4%	> 100 µM	−1.9%	> 100 µM	–	–	–	–	–	–	–	–	–	–
CC(C)OC(=O)[C@H](C)NP(=O)(OC[C@H]1O[C@@H](n2ccc(=O)[nH]c2=O)C(Cl)(Cl)[C@@H]1O)Oc1ccccc1 (stereo partly drawn) [Compound 18, (2S)-isopropyl 2-(((((2R,3R,5R)-4,4-dichloro-5-(2,4-dioxo-3,4-dihydropyrimidin-1(2H)-yl)-3-hydroxytetrahydrofuran-2-yl)methoxy)(phenoxy)phosphoryl)amino)propanoate]	25%	–	2.3%	–	17%	–	> 100 µM	> 100 µM	> 100 µM	–	–	–	–	–	–	–
Nc1ccn([C@@H]2O[C@H](CO)[C@@H](O)C2(Cl)Cl)c(=O)n1 [Compound 22, 4-amino-1-((2R,4R,5R)-3,3-dichloro-4-hydroxy-5-(hydroxymethyl)tetrahydrofuran-2-yl)pyrimidin-2(1H)-one]	82%	–	101%	–	87%	–	–	< 1 µM	–	< 1 µM	< 1 µM	> 10 µM	> 10 µM	> 10 µM	–	–
CC(C)OC(=O)[C@H](C)NP(=O)(OC[C@H]1O[C@@H](n2ccc(N)nc2=O)C(Cl)(Cl)[C@@H]1O)Oc1ccccc1 (stereo partly drawn) [Compound 23, (2S)-isopropyl 2-(((((2R,3R,5R)-5-(4-amino-2-oxopyrimidin-1(2H)-yl)-4,4-dichloro-3-hydroxytetrahydrofuran-2-yl)methoxy)(phenoxy)phosphoryl)amino)propanoate]	91%	–	101%	–	(−86 @ 100) %	–	< 1 µM	< 1 µM	–	–	–	–	–	> 10 µM	0.1 to 1 µM	0.1 to 1 µM
